Assay results: patent US12496329B2, “Methods of using and compositions including an incretin analog” (Eli Lilly and Company, priority 2021, dated 2025)

How the values were obtained:
[1] = MAD study in individuals with diabetes: safety and tolerability; format: in vivo, human
From the text: Studies are designed to evaluate the safety, tolerability, PD and PK of the GGG tri-receptor agonist (SEQ ID NO:1) in individuals with diabetes. The MAD study is a randomized, investigator- and participant-blind, placebo-controlled, multiple-ascending dose, single-site study conducted in individuals with diabetes (i.e., females or males aged 20-70 years, inclusive, with T2DM for at least 3 months and HbA1c at lead-in and screening of ≥7.0% and ≤10.5% and treated with diet and exercise alone or a stable dose of metformin for at least 3 months prior to screening, with stable body weight for 3 months prior to randomization and with a BMI of 23-50 kg/m^2 at screening).
Dose escalation of the GGG tri-receptor agonist is assessed over 12 weeks in cohorts with a starting dose of 0.5 mg. One cohort of 13 individuals is administered 0.5 mg for 12 weeks. A second cohort of 13 individuals is administered 1.5 mg for 12 weeks. A third cohort of 15 individuals is administered 3.0 mg for 12 weeks. A fourth cohort of 15 individuals is administered 3.0 mg for 4 weeks and then administered 6.0 mg for 8 weeks. A fifth cohort of 16 individuals is administered 3.0 mg for 2 weeks, administered 6.0 mg for 2 weeks, administered 9.0 mg for 4 weeks, and then administered 12 mg for 4 weeks. Alternate dose increment steps may be introduced based on emerging safety and tolerability data from the preceding cohorts, and the dose increment steps can be reduced. As a non-limiting example, in Cohort 4, escalation from starting dose of 3 mg may occur via a step-through dose of 4.5 mg before attaining 6 mg, in Cohort 5, escalation from starting dose of 3 to 12 mg may occur via an additional step through dose level of 4.5 mg, prior to the planned doses 6 and 9 mg. In addition to these proposed alternate regimens in Cohort 4 and Cohort 5, planned dose for escalation between cohorts and within cohorts may be further reduced if warranted by safety or tolerability data.
In the event of drug hypersensitivity reactions (immediate or nonimmediate), samples are collected for antidrug antibody (ADA) analysis as close to the onset of the event as possible, at the resolution of the event, and 30 days following the onset of the event. Samples are analyzed using a validated electrochemiluminescence immunosorbent assay at BioAgilytix Labs (Durham, NC).

Phase 2 study for T2DM = format: in vivo, human; details: 16 week data; start 1 or 2 mg, steps of 1, 2, 3 or 4 mg to maximum 12 mg QW SC
From the text: Studies are designed to further evaluate the effectiveness and safety of the GGG tri-receptor agonist (SEQ ID NO: 1) in a larger population of individuals with diabetes. The study is a randomized, investigator- and participant-blind, placebo-controlled study conducted in individuals with diabetes (i.e., females or males aged 18-75 years, inclusive, with T2DM for at least 3 months and HbA1c at lead-in and screening of ≥7.0% and ≤10.5% and treated with diet and exercise alone or a stable dose of metformin for at least 3 months prior to screening, with stable body weight for 3 months prior to randomization and with a BMI of 25-50 kg/m^2 at screening).
Dose escalation of the GGG tri-receptor agonist is assessed over 36 weeks in cohorts administered the GGG tri-receptor agonist, dulaglutide or placebo. A first cohort of 50 individuals is administered 2.0 mg of the GGG tri-receptor agonist for Weeks 1-4, 4.0 mg for the Weeks 5-8, 8.0 mg for Weeks 9-12, and then 12.0 mg for Weeks 13-36. […] A third cohort of 20 individuals is administered 2.0 mg of the GGG tri-receptor agonist for Weeks 1-4, 4.0 mg for Weeks 5-8, and then 8.0 mg for Weeks 9-36. […]
Blood samples are collected pre-dose and at Week 24 for HbA1c. […] In addition, change in body weight (kg) is assessed from baseline to Week 24 and to Week 36. […]

## CC[C@H](C)[C@H](NC(=O)[C@H](Cc1ccccc1)NC(=O)[C@H](C)NC(=O)C(C)(C)NC(=O)[C@H](CCC(N)=O)NC(=O)[C@H](C)NC(=O)[C@H](CCCCNC(=O)COCCOCCNC(=O)CC[C@H](NC(=O)CCCCCCCCCCCCCCCCCCC(=O)O)C(=O)O)NC(=O)[C@H](CCCCN)NC(=O)[C@H](CC(=O)O)NC(=O)[C@H](CC(C)C)NC(=O)[C@](C)(CC(C)C)NC(=O)[C@@H](NC(=O)[C@H](CO)NC(=O)[C@H](Cc1ccc(O)cc1)NC(=O)[C@H](CC(=O)O)NC(=O)[C@H](CO)NC(=O)[C@@H](NC(=O)[C@H](Cc1ccccc1)NC(=O)[C@@H](NC(=O)CNC(=O)[C@H](CCC(N)=O)NC(=O)C(C)(C)NC(=O)[C@@H](N)Cc1ccc(O)cc1)[C@@H](C)O)[C@@H](C)O)[C@@H](C)CC)C(=O)N[C@@H](CCC(=O)O)C(=O)N[C@@H](Cc1ccc(O)cc1)C(=O)N[C@@H](CC(C)C)C(=O)N[C@@H](CC(C)C)C(=O)N[C@@H](CCC(=O)O)C(=O)NCC(=O)NCC(=O)N1CCC[C@H]1C(=O)N[C@@H](CO)C(=O)N[C@@H](CO)C(=O)NCC(=O)N[C@@H](C)C(=O)N1CCC[C@H]1C(=O)N1CCC[C@H]1C(=O)N1CCC[C@H]1C(=O)N[C@@H](CO)C(N)=O [GGG tri-receptor agonist, Y-Aib-QGTFTSDYSI-αMeL-LDKK((2-[2-(2-amino-ethoxy)-ethoxy]-acetyl)-(γGlu)-CO-(CH2)18-CO2H)AQ-Aib-AFIEYLLEGGPSSGAPPPS-NH2]
[1]; 6.0 mg and 12.0 mg arms
  systolic blood pressure: dose-dependent decrease in systolic blood pressure
[1]; MAD study
  GI events (nausea, diarrhea, vomiting): mostly mild in severity and dose related
  heart rate: Dose-dependent increases in heart rate
[1]; MAD study, 12 weeks QW
  tolerability: well tolerated
[1]; doses of ≥6.0 mg
  incidences of AEs: increased incidences of AEs
[1]; multiple SC doses of 0.5 to 12.0 mg
  safety concerns: no unexpected safety concerns
[1]; once-weekly 0.5, 1.5 and 3.0 mg for 12 weeks
  tolerability: well tolerated
Phase 2 study for T2DM
  tolerability profile of dosing regimens: acceptable tolerability profiles
